# Experimental data published in US20040171613A1, “Therapeutic agent for non-immediate type allergic diseases” (JAPAN TOBACCO INC., priority 2001, published 2004).
# Like-named read-outs stand apart in the source and are kept apart here.
# Assays:
# [1] = test system: mouse ear; assay: ear swelling induced by application of CB2 agonist or arachidonic acid; format: in vivo
# Description: Therefore, 2-arachidonoylglycerol ether (2-AG-E), the stable form of an endogenous ligand candidate 2-arachidonoylglycerol, and a specific CB2 agonist HU-308 were examined whether they directly induce ear swelling and compared to the ear swelling induced by arachidonic acid (AA).
# Synthetically produced 2-AG-E and HU-308 were prepared with acetone to 1 or 10% (w/v) and 10% (w/v), respectively, and AA (Sigma) was prepared with acetone to 1.25% (w/v), on needed basis. 10 μL each of these substances was applied on each side of the left ear.
# [2] = target: T1, CB2 (Homo sapiens, UniProt P34972); assay: cAMP production in forskolin-stimulated hCB2-expressing CHO cells; format: cell-based; parameters: expressed in transfected cells; host or cells: CHO cells; details: for remaining activity at 0.1 µM: CHO, Forskolin (5 μM) + compound 0.1 μM, read-out: Amount of cAMP production compared to control (ratio (%))
# Target sequence in this assay (P34972 whole entry): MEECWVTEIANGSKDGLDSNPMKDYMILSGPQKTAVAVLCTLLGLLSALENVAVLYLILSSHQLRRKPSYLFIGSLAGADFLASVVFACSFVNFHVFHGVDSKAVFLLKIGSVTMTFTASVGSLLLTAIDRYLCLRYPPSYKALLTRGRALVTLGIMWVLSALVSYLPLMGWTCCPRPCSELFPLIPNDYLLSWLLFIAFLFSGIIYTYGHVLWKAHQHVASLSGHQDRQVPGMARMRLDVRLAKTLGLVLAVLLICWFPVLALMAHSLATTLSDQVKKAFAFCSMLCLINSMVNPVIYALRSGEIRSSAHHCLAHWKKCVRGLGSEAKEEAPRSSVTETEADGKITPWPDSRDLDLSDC
# [3] = test system: wild-type and CB2-deficient mice; assay: 2-AG-E-induced ear swelling in CB2-deficient mice; format: in vivo, mouse
# Description: As described under the item of “7. IgE-dependent ear swelling in CB2-deficient mice”, female CB2-KO mice and female WT mice were used as experimental animals.
# 10 μL of 2-AG-E (100 mg/mL acetone) was applied on each side of the left ears of the mice on the first day of experiment.
# (§1) The swelling of the ear was measured over time before and after the application of 2-AG-E using a dial thickness gauge. The difference between the values measured before and after the antigen application was defined as the degree of ear swelling. Then, AUC (area under the curve: the degree of ear swelling ×time) was determined from the changes of the degree of ear swelling with the time course, and given as mean ± standard error (S.E.). Student's t-test was used in the statistical treatment. A significance level less than 5% was assumed to be significant.
# [4] = test system: WBB6F1-+/+ and WBB6F1-W/Wv mice; assay: 2-AG-E-induced ear swelling in mast cell-deficient mice; format: in vivo, mouse; details: topical 2-AG-E 100 mg/mL
# Description: The degree of allergic symptoms was examined in mice deficient (partially deficient) of mast cells, which cells are considered to largely contribute to allergic reactions.
# Female mice of WBB6F1-+/+ (normal mouse) strain and WBB6F1-W/W^v (mast cell-deficient mouse) strain were purchased from Japan SLC, Inc. and used as experimental animals.
# 10 μL 2-AG-E (100 mg/mL acetone) was applied on each side of the left ears of the mice on the first day of experiment.
# as §1, with “AUC” for “AUC (area under the curve: the degree of ear swelling ×time)”, “changes in” for “changes of”, “time course” for “time course,”
# [5] = test system: IgE-dependent allergic dermatitis
# Description: (§2) Using a triphase dermatitis model that can be induced by antigen in mouse passively sensitizationed with IgE, the actions of CB2 inverse agonist and CB2 agonist were examined.
# (§3) *Animal: 8 to 10 weeks-old Female BALB/c mouse (Japan SLC Inc.) was used.
# (§4) Preparation of solvent: MC was dissolved in distilled water to prepare an aqueous 0.5% MC solution.
# (§5) Anti-DNP IgE (antibody against DNP; Yamasa Corp.) was prepared to 15 μg/mL with physiological saline. 0.2 mL of the resulting solution was given through the caudal vein to the mouse.
# (§6) Antigen preparation: 0.15% (w/v) of DNFB (2,4-dinitrofluorobenzene) was prepared in a mixed solution of acetone and olive oil (3:1, v/v) on needed basis.
# (§7) Antigen application: 25 μl of the antigen solution was applied on each side of both of the ears 24 hours after the administration of the anti-DNP IgE.
# (§8) From the next day of the antigen application to day 8 after the antigen application, 10 mL/kg test compound was orally administered once a day 9 times in total. On the day of antigen application, the test compound was administered one hour before the antigen application and the test compound was administered one hour before the measurement of the thickness of the ear on day 8 after the antigen application.
# (§9) Before and 8 days after the antigen application, the thickness of the ear was measured with a dial thickness gauge (Mitutoyo Corp.). The difference between the value measured before the antigen application and at each time point was used as an index of swelling.
# (§10) After the measurement of ear swelling, spleen and thymus were harvested to weigh their wet weights.
# [6] = test system: IgE-dependent allergic dermatitis; details: mouse, in vivo, po
# Description: as §2, §3, §4, §5, §6, §7, §8, §9, §10
# [7] = target: T1, CB2; parameters: host or cells: CHO cells expressing CB2; details: CB2 expressing CHO cells; non-patent reference 3; cited from earlier work
# Target sequence in this assay (P34972 whole entry, species assumed): as the sequence (P34972 whole entry) above
# [8] = test system: spontaneous scratching reaction; assay: spontaneous scratching reaction of NC mouse; format: in vivo; details: NC/Jic mice; oral once a day for 3 weeks; vs solvent control
# Description: Currently, NC mouse is used as an animal model of atopic dermatitis. No dermatitis or scratching action is observed when the mouse is kept in an environment under the control of atmospheric microorganisms (in SPF environment). However, when the mouse is kept in a conventional environment, scratching action together with the onset of dermatitis can be observed from about week 8 and the symptom progresses into chronic symptom (J. Dermatol. Sci., 25, 20-28, 2001).
# Preparation of solvent: MC was dissolved in tap water to prepare an aqueous 0.5% (w/v) MC solution.
# As positive controls, betamethasone valerate (Sigma) and tacrolimus hydrate (extracted from Prograf (Fujisawa Pharmaceutical Co., Ltd.)) were similarly prepared to 1 mg/mL. Betamethasone valerate is one of the adrenocorticosteroids that is considered to be effective for the treatment of atopic dermatitis. Tacrolimus hydrate is a therapeutic agent of atopic dermatitis which is known as an immunosuppressor as described above.
# The mice (A) were taken away from the cage and the NC/Jic mice were used at the age of 16 weeks.
# Breeding conditions: The mice were fed with solid feed CA-1 (CLEA JAPAN INC.) ad libitum and tap water as drinking water ad libitum, and kept at a temperature of 22±2° C. and a humidity of 55±10% under lighting from 8:00 a.m. to 20:00 p.m.
# From 10 days before the start of the experiment, the number of scratching behavior with hind legs of the mice was visually counted (for 20 minutes; once daily) over 2 days or 3 days. Among the plural mice counted, mice with 50 or more average scratching movements per day were selected for use.
# The behavior of the mice was filmed under unattended environment with a video camera to count the scratching motion with hind legs for one hour. […] This series of scratching motions was counted as one scratching movement, and all such scratching movements were counted irrespective of scratched sites. The measurement was done on the starting day of administration, and one day, 3, 6, 10, 13, 17 and 20 days after the start of administration. […]
# [9] = test system: antigen-induced asthma; assay: antigen-induced immediate type asthma, late-type asthma and airway hypersensitivity in guinea pigs; format: in vivo, guinea pig; details: oral, compound A 10, 30, 100 mg/kg, positive controls 30 mg/kg
# Description: The test compound was further diluted to 20, 6 and 2 mg/mL on needed basis. As positive controls, 6 mg/mL pranlukast hydrate (extracted from Onon™ (Ono Pharmaceutical Co., Ltd.)) and 6 mg/mL prednisolone (Sigma) were similarly prepared.
# Sensitization: Using an ultrasonic nebulizer (NE-U12; OMRON), a 6-weeks old male Hartley guinea pig (Kudo, Co., Ltd.) was continuously inhaled with 1% OVA (ovalbumin; Sigma)-containing physiological saline for 10 minutes per day for 8 consecutive days.
# Antigen challenge: One week after the last sensitization, 2% OVA was similarly inhaled for 5 minutes. 24 hours before and one hour after the OVA challenge, metyrapone-containing physiological saline (Aldrich, 10 mg/mL) was administered intravenously and 30 minutes before the OVA induction, pyrilamine-containing physiological saline (Sigma, 10 mg/kg) was administered intraperitoneally.
# During the 8 days of sensitization, the test compound was given one hour before the sensitization. On the day of the antigen challenge, the test compound was given one hour before the challenge. As solvent controls, the vehicle was similarly administered in accordance with OVA induction and physiological saline induction.
# As positive controls, pranlukast hydrate was administered one hour before the challenge, while prednisolone was administered 16 hours and 2 hours before the challenge. The animals were fasted 16 to 18 hours before the oral administration.
# Using total respiratory function analysis system (Pulmos-I, M.I.P.S. Company), the pre value was measured. Subsequently, specific airway resistance (hereinafter referred to as sRaw) per 100 breathes was measured one minute and 2, 4, 5, 6, 7 and 8 hours after the OVA challenge, and further once between 22 to 26 hours after the challenge, respectively. The average was used as sRaw at each measured time point. The increment ratio of sRaw was calculated by the following formula.
# Increment ratio of sRaw (%)=[(sRaw at each measured time point −sRaw before the challenge)/(sRaw before the challenge)]×100
# Twenty-two to 26 hours after the antigen challenge, each of 0.0625, 0.125, 0.25, 0.5, 1 and 2 mg/mL solutions of physiological saline and acetylcholine (hereinafter referred to as ACh) were sequentially inhaled for one minute, until the sRaw was 2-fold or more to the baseline sRaw (sRaw after inhalation of physiological saline). Based on the ACh concentration and the concentration-resistance curve of sRaw, the ACh concentration required for the sRaw to achieve 100% increase from the baseline sRaw, i.e., PC100ACh was determined.
# [10] = test system: DNFB-induced allergic dermatitis; assay: murine DNFB-induced allergic dermatitis model; format: in vivo, mouse; details: 24 hours after the fifth antigen application; oral dosing
# Description: The model is produced by repeating antigen sensitization and induction in mouse to induce contact dermatitis that involves increase of IgE antibody titer, i.e., inflammation similar to atopic dermatitis (J. Allergy Clin. Immunol., 100 (6Pt2), 39-44, December 1997).
# Furthermore, by dilution, 0.1 mg/mL and 0.01 mg/mL suspensions were prepared. In addition, as positive controls, 0.5 mg/mL, 0.2 mg/mL and 0.1 mg/mL solutions of prednisolone (Sigma) were similarly prepared.
# During the period from the next day of the third antigen application to the next day of the fifth antigen application, 10 mL/kg of the above-described test compound was administered once a day 15 times in total.
# The difference of thickness was used as an index of swelling. FIGS. 1 and 2 show the results of the measurement at the fourth and fifth antigen applications, together with the results of the positive controls.
# 24 hours after the fifth antigen application, the spleen was harvested from the mouse exsanguinated under anesthesia with ether. The wet weight of the spleen was measured.
# [11] = 8 days after antigen application, oral dosing
structure (smiles),measurement,setting,value
"CCCCC/C=C\C/C=C\C/C=C\C/C=C\CCCC(=O)O [AA, arachidonic acid]",time after which swelling disappeared,[1]; topical AA 1.25% (w/v),2 days
same,time of peak ear swelling after the application,[1]; topical application on ear,one
same,ear swelling induced by application on the ear,"[1]; topical in acetone, 2-AG-E 1 or 10%, HU-308 10%, AA 1.25% (w/v)",swelling that reached a peak one hour after the application
CCCCCOc1c(OC)ccc2cc(C(=O)NCCN3CCOCC3)c(=O)[nH]c12 [B],remaining activity at 0.1 µM,[2],430%
CCCCOc1c(OC)ccc2cc(C(=O)NCCc3ccc(F)cc3)c(=O)[nH]c12 [C],remaining activity at 0.1 µM,[2],212%
"CCCCC/C=C\C/C=C\C/C=C\C/C=C\CCCC(=O)OC(CO)CO [Compound 2-AG, 2-arachidonoylglycerol]",forskolin-stimulated cAMP production,"[2]; hCB2-expressing CHO cells, statement in definitions",suppress the forskolin-stimulated cAMP production
"CCCCC/C=C\C/C=C\C/C=C\C/C=C\CCCCOC(CO)CO [Compound 2-AG-E, 2-arachidonoylglycerol ether]",forskolin-stimulated cAMP production,[2],suppress the forskolin-stimulated cAMP production
same,functional character at CB2 (inverse agonist / agonist),[2],agonists
same,"2-AG-E-induced dermatitis, CB2-deficient mice, very late phase",[3]; CB2-KO,no significant inflammation was observed
same,"2-AG-E-induced dermatitis, CB2-deficient mice, early phase","[3]; CB2-KO, topical 2-AG-E 100 mg/mL",developed dermatitis in the early phase
same,"2-AG-E-induced dermatitis, CB2-deficient mice, late phase","[3]; CB2-KO, vs wild-type",inflammation was milder in the late phase
same,"2-AG-E-induced dermatitis (ear swelling), wild-type mice","[3]; wild-type C57BL/6 J, topical 2-AG-E 100 mg/mL",developed dermatitis in the very late phase in addition to the early phase and late phase
same,"2-AG-E-induced dermatitis, mast cell-deficient (WBB6F1-W/Wv) mice",[4],developed dermatitis
same,"2-AG-E-induced dermatitis, wild-type (WBB6F1-+/+) mice",[4]; vs mast cell-deficient mice,more severe dermatitis
same,ear swelling induced by application on the ear,"[1]; mouse, in vivo",concentration-dependent ear swelling
same,time of peak ear swelling after the application,"[1]; mouse, in vivo",1 to 2 h
CCCCCOc1c(OC)ccc2cc(C(=O)NCCc3ccncc3)c(=O)n(C)c12 [F],remaining activity at 0.1 µM,[2],218%
CCCCCCC(C)(C)c1cc(OC)c([C@@H]2C=C(CO)[C@@H]3C[C@H]2C3(C)C)c(OC)c1 [HU-308],wet weight of the spleen,[5]; [11],Significant decrease
same,"ear swelling, very late phase","[5]; 8 days after application, oral once a day, compound A 0.1, 1, 10 mg/kg, SR144528 0.1 mg/kg or higher, HU-308 10 and 50 mg/kg",no pharmacological effect was observed
CCCCCOc1c(OC)ccc2c1CC(=O)N(CCCN1CCOCC1)C2=O [I],remaining activity at 0.1 µM,[2],125%
Cc1ccc(Cn2nc(C(=O)N[C@H]3C4(C)CCC(C4)C3(C)C)cc2-c2ccc(Cl)c(C)c2)cc1 (some centres unmarked) [SR144528],wet weight of the spleen,[6],no apparent changes
same,wet weight of the thymus,[6],no apparent changes
same,forskolin-stimulated cAMP production,[7],elevate the production of cyclic adenosine-phosphate (cAMP)
same,"ear swelling, very late phase","[5]; mouse, in vivo",significant effect
CCCCC(=O)O[C@]1(C(=O)CO)[C@@H](C)C[C@H]2[C@@H]3CCC4=CC(=O)C=C[C@]4(C)[C@@]3(F)[C@@H](O)C[C@@]21C [betamethasone valerate],number of scratching movements,[8],suppressed the number of scratching movements
C[C@]12C=CC(=O)C=C1CC[C@@H]1[C@@H]2[C@@H](O)C[C@@]2(C)[C@H]1CC[C@]2(O)C(=O)CO [prednisolone],airway hypersensitivity (PC100ACh),[9]; 22 to 26 hours after antigen challenge,suppressed
same,immediate type asthma response (sRaw immediately after antigen challenge),[9],suppressed
same,late asthmatic response (sRaw over 4 to 8 hours after antigen challenge),[9],suppressed
same,spleen wet weight,[10],decrease of spleen weight
same,wet weight of the spleen,[5]; [11],significant suppression
same,wet weight of the thymus,[5]; [11],significant suppression
C=CC[C@@H]1/C=C(\C)C[C@H](C)C[C@H](OC)[C@H]2O[C@@](O)(C(=O)C(=O)N3CCCC[C@H]3C(=O)O[C@H](/C(C)=C/[C@@H]3CC[C@@H](O)[C@H](OC)C3)[C@H](C)[C@@H](O)CC1=O)[C@H](C)C[C@@H]2OC [tacrolimus hydrate],number of scratching movements,[8],suppressed the number of scratching movements
